Laboratory results reported in ChEMBL document CHEMBL1139090, “Synthesis of potent and tissue-selective androgen receptor modulators (SARMs): 2-(2,2,2)-Trifluoroethyl-benzimidazole scaffold” (Bioorg Med Chem Lett, 2007).
pIC50: −log10 of the molar value. Activity calls are given as the source filed them. No cut-off for these calls is given here.

Tests used:
Rattus norvegicus [1] = assay: Inhibition of prostate weight in immature Sprague-Dawley rat at 2 mg/day, sc relative to testosterone; type: functional, Prostate gland; settings: for Activity: Prostate gland
Rattus norvegicus [2] = organism: Rattus norvegicus; assay: Stimulation of levator ani muscle weight in immature Sprague-Dawley rat at 2 mg/day relative to testosterone; type: functional
Rattus norvegicus [3] = organism: Rattus norvegicus; assay: Stimulation of levator ani muscle weight in immature Sprague-Dawley rat; type: functional
Rattus norvegicus [4] = organism: Rattus norvegicus; assay: Inhibition of prostate weight in immature Sprague-Dawley rat; type: functional, Prostate gland
Androgen receptor = molecular target: T1, Androgen receptor (Homo sapiens, UniProt P10275); assay: Binding affinity at androgen receptor expressed in COS cells by whole cell binding assay; type: cell-based
T1 sequence (P10275 whole entry): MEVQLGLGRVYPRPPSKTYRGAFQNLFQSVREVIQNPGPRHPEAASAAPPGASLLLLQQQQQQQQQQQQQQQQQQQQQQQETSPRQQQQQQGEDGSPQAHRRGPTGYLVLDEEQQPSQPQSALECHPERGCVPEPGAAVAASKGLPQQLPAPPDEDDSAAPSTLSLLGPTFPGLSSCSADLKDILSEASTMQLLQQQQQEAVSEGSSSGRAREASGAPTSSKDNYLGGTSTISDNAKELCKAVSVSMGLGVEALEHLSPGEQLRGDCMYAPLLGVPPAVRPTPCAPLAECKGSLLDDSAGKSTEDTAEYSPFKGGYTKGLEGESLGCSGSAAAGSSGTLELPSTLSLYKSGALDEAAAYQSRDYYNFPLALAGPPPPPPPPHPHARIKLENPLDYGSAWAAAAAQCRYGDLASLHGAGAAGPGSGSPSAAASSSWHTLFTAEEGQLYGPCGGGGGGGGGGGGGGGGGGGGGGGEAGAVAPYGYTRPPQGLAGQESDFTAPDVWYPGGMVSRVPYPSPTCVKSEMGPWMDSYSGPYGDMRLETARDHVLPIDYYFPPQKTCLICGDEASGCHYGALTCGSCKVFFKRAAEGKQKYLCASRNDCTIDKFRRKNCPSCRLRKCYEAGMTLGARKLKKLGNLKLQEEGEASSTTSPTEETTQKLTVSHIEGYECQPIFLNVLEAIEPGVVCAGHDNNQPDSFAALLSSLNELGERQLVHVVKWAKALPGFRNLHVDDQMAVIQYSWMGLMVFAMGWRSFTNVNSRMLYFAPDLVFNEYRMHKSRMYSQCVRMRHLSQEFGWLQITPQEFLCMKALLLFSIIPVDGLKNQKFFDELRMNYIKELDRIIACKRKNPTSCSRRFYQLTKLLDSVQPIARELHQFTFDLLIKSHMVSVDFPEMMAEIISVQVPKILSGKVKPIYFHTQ

Rattus norvegicus [5] = organism: Rattus norvegicus; assay: Toxicity in immature Sprague-Dawley rat at 3 mg/day; type: organism-based; settings: in vivo
Rattus norvegicus [6] = organism: Rattus norvegicus; assay: Stimulation of levator ani muscle weight in mature Sprague-Dawley rat; type: functional

## CCC(C)(C)C(O)(c1nc2cc(Cl)c(Cl)cc2[nH]1)C(F)(F)F (stereo unspecified)
Rattus norvegicus [1]
  Inhibition: 42%
Rattus norvegicus [2]
  Activity: 11%

## C/C=C/CC(O)(c1nc2cc(Cl)c(Cl)cc2[nH]1)C(F)(F)F (stereo unspecified)
Rattus norvegicus [1]
  Inhibition: 74%
Rattus norvegicus [2]
  Activity: 10%

## OC(Cc1ccc(F)cc1)(c1nc2cc(Cl)c(Cl)cc2[nH]1)C(F)(F)F (stereo unspecified)
Rattus norvegicus [1]
  Inhibition: 72%
Rattus norvegicus [2]
  Activity: inactive

## CC(C)=C(C)C(O)(c1nc2cc(Cl)c(Cl)cc2[nH]1)C(F)(F)F (stereo unspecified)
Rattus norvegicus [1]
  Inhibition: 47%
Rattus norvegicus [2]
  Activity: inactive

## C=C=CC(O)(c1nc2cc(Cl)c(Cl)cc2[nH]1)C(F)(F)F (stereo unspecified)
Rattus norvegicus [1]
  Inhibition: 85%
Rattus norvegicus [2]
  Activity: 99%
Rattus norvegicus [3]
  ED50: 0.075 mg/day

## C/C=C\C(O)(c1nc2cc(Cl)c(Cl)cc2[nH]1)C(F)(F)F (stereo unspecified)
Rattus norvegicus [1]
  Inhibition: 70%
Rattus norvegicus [2]
  Activity: 73%
Rattus norvegicus [3]
  ED50: 0.11 mg/day

## C=CCC(O)(c1nc2cc(Cl)c(Cl)cc2[nH]1)C(F)(F)F (stereo unspecified)
Rattus norvegicus [1]
  Inhibition: 87%
Rattus norvegicus [2]
  Activity: 34%
Rattus norvegicus [4]
  ID50: 0.67 mg/day
Rattus norvegicus [3]
  ED50: 1.4 mg/day

## CCSCC(O)(c1nc2cc(Cl)c(Cl)cc2[nH]1)C(F)(F)F (stereo unspecified)
Rattus norvegicus [1]
  Inhibition: 31%
Rattus norvegicus [2]
  Activity: 96%
Rattus norvegicus [3]
  ED50: 0.1 mg/day
Androgen receptor
  pIC50: 7.77

## CCC(O)(c1nc2cc(Cl)c(Cl)cc2[nH]1)C(F)(F)F (stereo unspecified)
Rattus norvegicus [1]
  Inhibition: 25%
Rattus norvegicus [2]
  Activity: 106%
Rattus norvegicus [5]
  Activity: Toxic

## FC(F)(F)C1(c2nc3cc(Cl)c(Cl)cc3[nH]2)C=CCO1 (stereo unspecified)
Rattus norvegicus [1]
  Activity: inactive
Rattus norvegicus [2]
  Activity: 50%

## C=C(C)C(O)(c1nc2cc(Cl)c(Cl)cc2[nH]1)C(F)(F)F (stereo unspecified)
Rattus norvegicus [1]
  Inhibition: 127%
Rattus norvegicus [2]
  Activity: inactive

## OC(CSCC(F)(F)F)(c1nc2cc(Cl)c(Cl)cc2[nH]1)C(F)(F)F (stereo unspecified)
Rattus norvegicus [1]
  Activity: inactive
Rattus norvegicus [2]
  Activity: 26%

## C/C=C/C(O)(c1nc2cc(Cl)c(Cl)cc2[nH]1)C(F)(F)F (stereo unspecified)
Rattus norvegicus [1]
  Inhibition: 61%
Rattus norvegicus [2]
  Activity: 23%

## FC(F)(F)C1(c2nc3cc(Cl)c(Cl)cc3[nH]2)C=CCN1 (stereo unspecified)
Rattus norvegicus [1]
  Inhibition: 57%
Rattus norvegicus [2]
  Activity: 8%

## C=C=C(C)C(O)(c1nc2cc(Cl)c(Cl)cc2[nH]1)C(F)(F)F (stereo unspecified)
Rattus norvegicus [1]
  Inhibition: 78%
Rattus norvegicus [2]
  Activity: 15%

## OC(Cc1ccccc1)(c1nc2cc(Cl)c(Cl)cc2[nH]1)C(F)(F)F (stereo unspecified)
Rattus norvegicus [1]
  Inhibition: 86%
Rattus norvegicus [2]
  Activity: inactive

## N#CCC(O)(c1nc2cc(Cl)c(Cl)cc2[nH]1)C(F)(F)F (stereo unspecified)
Rattus norvegicus [1]
  Inhibition: 9%
Rattus norvegicus [2]
  Activity: 126%
Rattus norvegicus [3]
  ED50: 0.03 mg/day

## C=C(C)CC(O)(c1nc2cc(Cl)c(Cl)cc2[nH]1)C(F)(F)F (stereo unspecified)
Rattus norvegicus [1]
  Inhibition: 59%
Rattus norvegicus [2]
  Activity: 17%

## C#CCC(O)(c1nc2cc(Cl)c(Cl)cc2[nH]1)C(F)(F)F (stereo unspecified)
Rattus norvegicus [1]
  Inhibition: 68%
Rattus norvegicus [2]
  Activity: 71%

## CC(C)C(O)(c1nc2cc(Cl)c(Cl)cc2[nH]1)C(F)(F)F (stereo unspecified)
Rattus norvegicus [1]
  Inhibition: 33%
Rattus norvegicus [2]
  Activity: 87%
Rattus norvegicus [3]
  ED50: 0.05 mg/day
Androgen receptor
  pIC50: 8.70

## CCCC(O)(c1nc2cc(Cl)c(Cl)cc2[nH]1)C(F)(F)F (stereo unspecified)
Rattus norvegicus [1]
  Inhibition: 63%
Rattus norvegicus [2]
  Activity: 67%

## FC(F)(F)C1(c2nc3cc(Cl)c(Cl)cc3[nH]2)CCCN1 (stereo unspecified)
Rattus norvegicus [1]
  Inhibition: 35%
Rattus norvegicus [2]
  Activity: 4%

## FC(F)(F)C1(c2nc3cc(Cl)c(Cl)cc3[nH]2)CCCO1 (stereo unspecified)
Rattus norvegicus [1]
  Inhibition: 55%
Rattus norvegicus [2]
  Activity: 64%

## OC(c1ccccc1)(c1nc2cc(Cl)c(Cl)cc2[nH]1)C(F)(F)F (stereo unspecified)
Rattus norvegicus [1]
  Inhibition: 61%
Rattus norvegicus [2]
  Activity: inactive

## C[C@](O)(CS(=O)(=O)c1ccc(F)cc1)C(=O)Nc1ccc(C#N)c(C(F)(F)F)c1 [(R)-BICALUTAMIDE]
Rattus norvegicus [1]
  Inhibition: 70%
Rattus norvegicus [2]
  Activity: inactive

## CC(C)=CC(O)(c1nc2cc(Cl)c(Cl)cc2[nH]1)C(F)(F)F (stereo unspecified)
Rattus norvegicus [1]
  Inhibition: 45%
Rattus norvegicus [2]
  Activity: 13%

## C=CC(O)(c1nc2cc(Cl)c(Cl)cc2[nH]1)C(F)(F)F (stereo unspecified)
Rattus norvegicus [1]
  Inhibition: 56%
Rattus norvegicus [2]
  Activity: 82%
Rattus norvegicus [6]
  ED50: < 0.3 mg/kg
Rattus norvegicus [3]
  ED50: 0.04 mg/day
Androgen receptor
  pIC50: 8.15

## CC#CC(O)(c1nc2cc(Cl)c(Cl)cc2[nH]1)C(F)(F)F (stereo unspecified)
Rattus norvegicus [1]
  Inhibition: 79%
Rattus norvegicus [2]
  Activity: inactive

## CC(C)=CCC(O)(c1nc2cc(Cl)c(Cl)cc2[nH]1)C(F)(F)F (stereo unspecified)
Rattus norvegicus [1]
  Inhibition: 71%
Rattus norvegicus [2]
  Activity: inactive
